Assay results from US6737383B1, “Herbicidal oxadiazolidines” (priority 1999, dated 2004).

What was measured:
duck salad = experiment: Test B flood test duck salad; format: in vivo, Heteranthera limosa
How it was run: (§1)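 Plants were grown to the 2-leaf stage before treatment with test chemical, then held in a greenhouse for twelve to sixteen days. Injury was visually rated against untreated controls on a 0–10 scale, where 0 is no effect and 10 is complete control.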

crabgrass = experiment: Test B pre/postemergence crabgrass; format: in vivo, Digitaria sanguinalis
How it was run: (§2)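 Test chemicals in a non-phytotoxic solvent mixture with surfactant were sprayed preemergence onto planted seeds and postemergence onto plants 2 to 18 cm tall (1- to 4-leaf stage). After twelve to sixteen days in a greenhouse, injury was visually rated against untreated controls from 0 (no effect) to 10 (complete control).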

pigweed = experiment: Test B pre/postemergence pigweed; format: in vivo, Amaranthus retroflexus
How it was run: as §2

wheat = experiment: Test B pre/postemergence wheat; format: in vivo, Triticum aestivum
How it was run: as §2

purple nutsedge = experiment: Test B pre/postemergence purple nutsedge; format: in vivo, Cyperus rotundus
How it was run: as §2

sugar beet = experiment: Test B pre/postemergence sugar beet; format: in vivo, Beta vulgaris
How it was run: as §2

cocklebur = experiment: Test B pre/postemergence cocklebur; format: in vivo, Xanthium strumarium; settings: for Cocklebur plant response rating: Postemergence; for Plant response rating, Cocklebur: Preemergence
How it was run: as §2

velvetleaf = experiment: Test B pre/postemergence velvetleaf; format: in vivo, Abutilon theophrasti
How it was run: as §2

rape = experiment: Test B pre/postemergence rape; format: in vivo, Brassica napus
How it was run: as §2

smallflower flatsedge = experiment: Test B flood test smallflower flatsedge; format: in vivo, Cyperus difformis
How it was run: as §1

morningglory = experiment: Test B pre/postemergence morningglory; format: in vivo, Ipomoea hederacea
How it was run: as §2

blackgrass = experiment: Test B pre/postemergence blackgrass; format: in vivo, Alopecurus myosuroides
How it was run: as §2

surinam grass = experiment: Test B pre/postemergence surinam grass; format: in vivo, Brachiaria decumbens
How it was run: as §2

bedstraw = experiment: Test B pre/postemergence bedstraw; format: in vivo, Galium aparine
How it was run: as §2

wild oat = experiment: Test B pre/postemergence wild oat; format: in vivo, Avena fatua
How it was run: as §2

corn = experiment: Test B pre/postemergence corn; format: in vivo, Zea mays
How it was run: as §2

[1] = Postemergence, Rate 62 g/ha, scale 0 to 10, 0 is no effect, 10 is complete control
[2] = Rate 125 g/ha, Postemergence section (flood test species), scale 0 to 10, 0 no effect, 10 complete control
[3] = Rate 250 g/ha, headed Pre-emergence (flood test species), scale 0 to 10 (0 no effect, 10 complete control)
[4] = Rate 500 g/ha, headed Pre-emergence (flood test species), scale 0 to 10 (0 no effect, 10 complete control)
[5] = Rate 2000 g/ha, Pre-emergence (as headed), scale 0 to 10
[6] = flood test, listed under Postemergence, Rate 250 g/ha, scale 0 to 10, 0 no effect, 10 complete control
[7] = Postemergence, Rate 250 g/ha, scale 0 to 10, 0 no effect, 10 complete control
[8] = Preemergence, Rate 62 g/ha, scale 0 to 10, 0 is no effect, 10 is complete control
[9] = Preemergence, Rate 125 g/ha, scale 0 to 10 (0 no effect, 10 complete control)
[10] = Preemergence, Rate 250 g/ha, scale of 0 to 10 where 0 is no effect and 10 is complete control
[11] = Preemergence, Rate 500 g/ha, scale 0 (no effect) to 10 (complete control)
[12] = Rate 125 g/ha, Postemergence, scale 0 to 10, 0 no effect, 10 complete control
[13] = Rate 500 g/ha, Postemergence, 0 to 10 scale (0 no effect, 10 complete control)
[14] = Rate 62 g/ha, scale 0 to 10, 0 is no effect, 10 is complete control

Cc1ccccc1-n1c(=O)on(C(=O)N(c2ccccc2)C(C)C)c1=O [Compound 36]
9: Plant response rating, Crabgrass (crabgrass; [9]) | Plant response rating, Crabgrass (crabgrass; [10]) | Morningglory plant response rating (morningglory; [7]) | Morningglory plant response rating (morningglory; [12]) | Morningglory plant response rating (morningglory; [13])
3: Crabgrass plant response rating (crabgrass; [1]) | Crabgrass plant response rating (crabgrass; [7]) | Crabgrass plant response rating (crabgrass; [12]) | Rape plant response rating (rape; [11]) | Blackgrass plant response rating (blackgrass; [12])
0: Ducksalad plant response rating (duck salad; [1]) | Ducksalad plant response rating (duck salad; [2]) | Ducksalad plant response rating (duck salad; [3]) | Ducksalad plant response rating (duck salad; Rate 500 g/ha, Postemergence section of Table B, 0 to 10 scale (0 no effect, 10 complete control)) | Plant response rating, Ducksalad (duck salad; [4]) | Ducksalad plant response rating (duck salad; Rate 1000 g/ha, Pre-emergence (as headed), scale 0 to 10) | Ducksalad plant response rating (duck salad; [5]) | Ducksalad plant response rating (duck salad; [6]) | Plant response rating, Redroot pigweed (pigweed; [8]) | Plant response rating, Redroot pigweed (pigweed; [9]) | Wheat plant response rating (wheat; [1]) | Wheat plant response rating (wheat; [7]) | Plant response rating, Wheat (wheat; [8]) | Plant response rating, Wheat (wheat; [9]) | Plant response rating, Wheat (wheat; [10]) | Wheat plant response rating (wheat; [11]) | Wheat plant response rating (wheat; [12]) | Nutsedge plant response rating (purple nutsedge; [1]) | Nutsedge plant response rating (purple nutsedge; [7]) | Plant response rating, Nutsedge (purple nutsedge; [8]) | Plant response rating, Nutsedge (purple nutsedge; [9]) | Plant response rating, Nutsedge (purple nutsedge; [10]) | Nutsedge plant response rating (purple nutsedge; [11]) | Nutsedge plant response rating (purple nutsedge; [12]) | Nutsedge plant response rating (purple nutsedge; [13]) | Sugarbeets plant response rating (sugar beet; [1]) | Sugarbeets plant response rating (sugar beet; [7]) | Plant response rating, Sugarbeets (sugar beet; [8]) | Plant response rating, Sugarbeets (sugar beet; [9]) | Plant response rating, Sugarbeets (sugar beet; [10]) | Sugarbeets plant response rating (sugar beet; [12]) | Cocklebur plant response rating (cocklebur; [14]) | Cocklebur plant response rating (cocklebur; Rate 250 g/ha, scale 0 to 10, 0 no effect, 10 complete control) | Plant response rating, Cocklebur (cocklebur; [14]) | Plant response rating, Cocklebur (cocklebur; Rate 125 g/ha, scale 0 to 10 (0 no effect, 10 complete control)) | Plant response rating, Cocklebur (cocklebur; Rate 250 g/ha, scale of 0 to 10 where 0 is no effect and 10 is complete control) | Cocklebur plant response rating (cocklebur; Rate 125 g/ha, scale 0 to 10, 0 no effect, 10 complete control) | Velvetleaf plant response rating (velvetleaf; [1]) | Velvetleaf plant response rating (velvetleaf; [7]) | Plant response rating, Velvetleaf (velvetleaf; [8]) | Plant response rating, Velvetleaf (velvetleaf; [9]) | Plant response rating, Velvetleaf (velvetleaf; [10]) | Velvetleaf plant response rating (velvetleaf; [11]) | Velvetleaf plant response rating (velvetleaf; [12]) | Rape plant response rating (rape; [1]) | Rape plant response rating (rape; [7]) | Plant response rating, Rape (rape; [8]) | Plant response rating, Rape (rape; [9]) | Plant response rating, Rape (rape; [10]) | Rape plant response rating (rape; [12]) | Rape plant response rating (rape; [13]) | S. Flatsedge plant response rating (smallflower flatsedge; [1]) | S. Flatsedge plant response rating (smallflower flatsedge; Pre-emergence, Rate 1000 g/ha, scale 0 to 10 (0 no effect, 10 complete control)) | S. Flatsedge plant response rating (smallflower flatsedge; [2]) | S. Flatsedge plant response rating (smallflower flatsedge; [3]) | Plant response rating, S. Flatsedge (smallflower flatsedge; [4]) | S. Flatsedge plant response rating (smallflower flatsedge; [5]) | S. Flatsedge plant response rating (smallflower flatsedge; [6]) | Plant response rating, Morningglory (morningglory; [8]) | Plant response rating, Morningglory (morningglory; [9]) | Plant response rating, Morningglory (morningglory; [10]) | Morningglory plant response rating (morningglory; [11]) | Blackgrass plant response rating (blackgrass; [1]) | B. signalgrass plant response rating (surinam grass; [1]) | B. signalgrass plant response rating (surinam grass; [7]) | B. signalgrass plant response rating (surinam grass; [12]) | Bedstraw plant response rating (bedstraw; [1]) | Plant response rating, Bedstraw (bedstraw; [8]) | Plant response rating, Bedstraw (bedstraw; [9]) | Bedstraw plant response rating (bedstraw; [11]) | Wild oats plant response rating (wild oat; [1]) | Wild oats plant response rating (wild oat; [7]) | Wild oats plant response rating (wild oat; [12]) | Corn plant response rating (corn; [1]) | Corn plant response rating (corn; [7]) | Plant response rating, Corn (corn; [8]) | Plant response rating, Corn (corn; [9]) | Plant response rating, Corn (corn; [10]) | Corn plant response rating (corn; [11]) | Corn plant response rating (corn; [12]) | Corn plant response rating (corn; [13])
8: Plant response rating, Crabgrass (crabgrass; [8]) | Crabgrass plant response rating (crabgrass; [13]) | Plant response rating, B. signalgrass (surinam grass; [9]) | Plant response rating, B. signalgrass (surinam grass; [10]) | B. signalgrass plant response rating (surinam grass; [11])
2: Redroot pigweed plant response rating (pigweed; [1]) | Plant response rating, Wild oats (wild oat; [9])
4: Cocklebur plant response rating (cocklebur; Rate 500 g/ha, 0 to 10 scale (0 no effect, 10 complete control)) | Morningglory plant response rating (morningglory; [1]) | Blackgrass plant response rating (blackgrass; [7]) | Plant response rating, Blackgrass (blackgrass; [8]) | B. signalgrass plant response rating (surinam grass; [13])
7: Redroot pigweed plant response rating (pigweed; [7]) | Redroot pigweed plant response rating (pigweed; [11]) | Redroot pigweed plant response rating (pigweed; [13]) | Blackgrass plant response rating (blackgrass; [11]) | Wild oats plant response rating (wild oat; [11])
5: Redroot pigweed plant response rating (pigweed; [12]) | Sugarbeets plant response rating (sugar beet; [11]) | Plant response rating, Blackgrass (blackgrass; [9]) | Plant response rating, B. signalgrass (surinam grass; [8])
10: Crabgrass plant response rating (crabgrass; [11])
6: Plant response rating, Redroot pigweed (pigweed; [10]) | Plant response rating, Blackgrass (blackgrass; [10]) | Blackgrass plant response rating (blackgrass; [13]) | Plant response rating, Wild oats (wild oat; [10])
